Legend:
[1] = Pharmacokinetics in hepatic impairment (Child-Pugh class A, B, C); type: in vivo, human
[2] = Animal studies of blood-brain-barrier passage; type: in vivo
Description: Ponesimod is highly bound to plasma proteins (>99%) and is mainly (78.5%) distributed in the plasma fraction of whole blood.

[3] = tested on: Patients (18-55 years) with RMS; assay: No evidence of disease activity (NEDA-3) status, baseline to week 108; type: in vivo, human
Method: Patients (18-55 years) with RMS (expanded disability status scale scores: 0-5.5) were randomized (1:1) to receive ponesimod (PON) 20 mg or teriflunomide (TER) 14 mg for 108 weeks. MRI assessments were: volume of T2 lesions; mean number of new gadolinium-enhancing (Gd+) T1 lesions and new/enlarging T2 lesions; and absence of active MRI lesions at week 108. NEDA-3 status (absence of confirmed relapse, Gd+T1 lesions and new/enlarging T2 lesions on annual MRIs, and 12-week confirmed disability accumulation) was evaluated from baseline to week 108.

[4] = tested on: rats; assay: Carcinogenesis, rats, oral up to 2 years; type: in vivo, rat
Method: Plasma exposure at the highest dose tested in males (30 mg/kg/day) was approximately 4 times that in humans at the recommended human dose (RHD) of 20 mg.

[5] = tested on: adult subjects with relapsing MS; assay: Fatigue-related symptoms, FSIQ-RMS weekly symptoms score, change from baseline to Week 108; type: in vivo, human
Method: (§1) In some embodiments, the patient-reported outcome questionnaire is the symptom domain of the FSIQ-RMS. The FSIQ-RMS symptom domain (FSIQ-RMS-S) consists of seven items assessing fatigue-related symptoms with a recall period of 24 hours measured on an 11-point numeric rating scale; the standardized symptom domain score ranges from 0 to 100 with a higher score indicating greater fatigue. This domain (i.e., section 1 of the questionnaire) is completed on 7 consecutive days.
The patient-reported outcome questionnaire used for the below Examples is the Fatigue Symptoms and Impact Questionnaire—Relapsing Multiple Sclerosis (FSIQ-RMS). The FSIQ-RMS is an MS specific 20-item PRO measure that comprises 2 domains: one measuring MS symptoms (7 items) and one measuring MS-related impacts (13 items). The 7 symptom items and 13 impact items (in 3 impacts subdomains: physical, cognitive and emotional, and coping) are presented below.
For the MS symptoms domain, the FSIQ-RMS asks about a patient's fatigue-related symptoms of relapsing MS over the past 24 hours while doing routine daily activities (e.g., housework, yard work, shopping, working, etc.) for Items 1-6 or while at rest (e.g., reading a book, watching TV, etc.) for Item 7. Patients are asked to select a response on a scale of 0 to 10 that best describes their experience and are asked to not skip any questions, with no answers being right or wrong.
Secondary efficacy variables and testing strategy: Four secondary efficacy endpoints were analyzed as per the statistical testing strategy outlined in FIG. 1. • Change from baseline to Week 108 in fatigue-related symptoms as measured by the symptoms domain of the FSIQ-RMS patient-reported outcome [Fatigue] • Cumulative number of combined unique active lesions from baseline to Week 108 on brain MRI [CUALs] • Time to first 12-week confirmed disability accumulation (CDA) from baseline to EOS on Expanded Disability Status Scale (EDSS) [12-week CDA] • Time to first 24-week CDA from baseline to EOS on EDSS [24-week CDA]
as §1, with “The” for “In some embodiments, the patient-reported outcome questionnaire is the symptom domain of the FSIQ-RMS. The”
FSIQ-RMS was completed during the pre-randomization period, at Visits 6, 7, 10, and 12 (Weeks 12, 24, 60, 84), 14 (EOT), and at unscheduled visits due to relapses (R1, R2, etc.) or other unscheduled visits (U1, U2, etc.) as described below. If applicable, FSIQ-RMS was performed at the corresponding visits in the PTOP.
After randomization, the symptoms domain of the FSIQ-RMS (i.e., section 1 of the questionnaire) was completed by the subject at home on a daily basis, starting in the evening of the day of a visit when the FSIQ-RMS was administered (Day 1 of questionnaire administration cycle) and during the 6 subsequent days (i.e., over 7 days in total). Subjects returned the completed FSIQ-RMS diary at the next scheduled visit. On the seventh day, the subject completed the impact domain of the FSIQ-RMS (i.e., section 2 of the questionnaire). If applicable, at the end of the PTOP, the FSIQ-RMS was completed prior to Visit 14A (Week 108), ideally, during the 7 consecutive days preceding the visit.

[6] = tested on: pregnant rabbits; assay: Embryofetal development study in pregnant rabbits, oral; type: in vivo
Description: No maternal toxicity was observed.

[7] = tested on: pregnant rats; assay: Embryofetal development study in pregnant rats, oral; type: in vivo
Description: Maternal toxicity was not observed, indicating a selective effect on the fetus.

[8] = Week 108, baseline EDSS <3.5 (title: ≤3.5)
[9] = Week 108, baseline fatigue below the median
[10] = Week 108, no Gd+ T1 lesions at baseline
[11] = Week 108, no prior DMT treatment

Compound: CCC/N=C1\S/C(=C\c2ccc(OC[C@H](O)CO)c(Cl)c2)C(=O)N1c1ccccc1C [Ponesimod, (R)-5-[3-chloro-4-(2,3-dihydroxy-propoxy)-benz[Z]ylidene]-2-([Z]-propylimino)-3-o-tolyl-thiazolidin-4-one]
- Increase of AUC0-∞ vs healthy subjects ([1]; mild hepatic impairment (Child-Pugh A)): 1.3 fold
- Change in Cmax vs healthy subjects ([1]; mild, moderate, or severe hepatic impairment): no change
- Increase of AUC0-∞ vs healthy subjects ([1]; moderate hepatic impairment (Child-Pugh B)): 2.0 fold
- Increase of AUC0-∞ vs healthy subjects ([1]; severe hepatic impairment (Child-Pugh C)): 3.1 fold
- Blood-brain-barrier passage [2]: readily crosses the blood-brain-barrier
- Odds ratio PON vs TER for NEDA-3 [3]: 1.70
- Patients achieving NEDA-3 [3]: 28.2%
- Plasma exposure at highest dose in male rats (30 mg/kg/day) relative to humans at RHD ([4]; rat, in vivo): approximately 4 times
- Carcinogenicity findings in rats ([4]; up to 30 (males) / 100 (females) mg/kg/day): did not result in an increase in tumors
- FSIQ-RMS change from baseline to Week 108, mean difference ponesimod vs teriflunomide ([5]; Full Analysis Set): −3.57
- Change from baseline to Week 108 in FSIQ-RMS weekly symptoms score (mean, MMRM) ([5]; Full Analysis Set, increase = worsening): −0.01
- Change in FSIQ-RMS-S total score: Improved (<−6.3), patients ([5]; Week 108, Full Analysis Set): 30.5%
- Change in FSIQ-RMS-S total score: Stable (−6.3 < × < +6.3), patients ([5]; Week 108, Full Analysis Set): 38.4%
- Change in FSIQ-RMS-S total score: Stable or Improved, patients ([5]; Week 108, Full Analysis Set): 68.9%
- Change in FSIQ-RMS-S total score: Worsened (≥6.3), patients ([5]; Week 108, Full Analysis Set): 31.1%
- FSIQ-RMS change: Improved (<−6.3), patients [5, 8]: 30.6%
- FSIQ-RMS change: Stable (−6.3 < × < +6.3), patients [5, 8]: 40.8%
- FSIQ-RMS change: Stable or Improved, patients [5, 8]: 71.4%
- FSIQ-RMS change: Worsened (≥6.3), patients [5, 8]: 28.6%
- FSIQ-RMS change: Improved (<−6.3), patients [5, 9]: 19.1%
- FSIQ-RMS change: Stable (−6.3 < × < +6.3), patients [5, 9]: 45.2%
- FSIQ-RMS change: Stable or Improved, patients [5, 9]: 64.4%
- FSIQ-RMS change: Worsened (≥6.3), patients [5, 9]: 35.6%
- FSIQ-RMS change: Stable (−6.3 < × < +6.3), patients [5, 10]: 37.4%
- FSIQ-RMS change: Stable or Improved, patients [5, 10]: 67.5%
- FSIQ-RMS change: Worsened (≥6.3), patients [5, 10]: 32.5%
- FSIQ-RMS change: Improved (<−6.3), patients [5, 11]: 31.4%
- FSIQ-RMS change: Stable (−6.3 < × < +6.3), patients [5, 11]: 44.0%
- FSIQ-RMS change: Stable or Improved, patients [5, 11]: 75.4%
- FSIQ-RMS change: Worsened (≥6.3), patients [5, 11]: 24.6%
- FSIQ-RMS change: Improved (<−6.3), patients ([5]; Week 108, no prior DMT treatment, listed as ponesimod): 31.4%
- Embryofetal findings in rabbits ([6]; 0, 0.25, 1, or 4 mg/kg/day oral, at highest dose): an increase in post-implantation loss and fetal variations
- No-effect dose for adverse effects on embryofetal development in rabbits ([6]; rabbit, in vivo): 1 mg/kg/day
- Plasma exposure at no-effect dose vs humans at RHD ([6]; rabbits): lower than that in humans
- Embryofetal findings in rats ([7]; 0, 1, 10, or 40 mg/kg/day oral during organogenesis, at all but the lowest dose): increased incidences of fetal malformations
- No-effect dose for adverse effects on embryofetal development in rats ([7]; rat, in vivo): 1 mg/kg/day
- Plasma exposure (AUC) at no-effect dose vs humans at RHD 20 mg/day ([7]; rats): lower than that in humans
